The results in this text go back to ChEMBL document CHEMBL3217519, “A self-immolative dendritic glucuronide prodrug of doxorubicin” (Medchemcomm, 2012).

Series [1] relates to NCI-H661. Briefly: Antiproliferative activity against human NCI-H661 cells assessed as inhibition of cell viability after 3 days by XTT assay in presence of beta-glucuronidase. It counts as functional, cell-based. The note with it: NCI-H661, 72 h. In general terms: Tetrazolium dyes change colour on reduction, which living cells bring about.
The nature of series [2]: Stability of the compound in 0.02M phosphate buffer assessed as drug decomposition at 0.06 umol at pH 7 after 10 days by HPLC analysis. It counts as physicochemical. The following applies: pH 7, 240 h.
The subject of series [3] is NCI-H661. Kind of series: Antiproliferative activity against human NCI-H661 cells assessed as inhibition of cell viability at 1000 nM after 3 days by XTT assay. It counts as functional, cell-based.
The target in series [4] is Beta-glucuronidase (Escherichia coli (strain K12), UniProt P05804). Briefly: Prodrug activation in phosphate buffer assessed as Escherichia coli beta-glucuronidase-catalysed release of doxorubicin at 0.06 umol at pH 7 after 6 hrs by HPLC analysis. The note with it: isolated protein, pH 7, 6 h.
Sequence of Beta-glucuronidase (P05804 whole entry): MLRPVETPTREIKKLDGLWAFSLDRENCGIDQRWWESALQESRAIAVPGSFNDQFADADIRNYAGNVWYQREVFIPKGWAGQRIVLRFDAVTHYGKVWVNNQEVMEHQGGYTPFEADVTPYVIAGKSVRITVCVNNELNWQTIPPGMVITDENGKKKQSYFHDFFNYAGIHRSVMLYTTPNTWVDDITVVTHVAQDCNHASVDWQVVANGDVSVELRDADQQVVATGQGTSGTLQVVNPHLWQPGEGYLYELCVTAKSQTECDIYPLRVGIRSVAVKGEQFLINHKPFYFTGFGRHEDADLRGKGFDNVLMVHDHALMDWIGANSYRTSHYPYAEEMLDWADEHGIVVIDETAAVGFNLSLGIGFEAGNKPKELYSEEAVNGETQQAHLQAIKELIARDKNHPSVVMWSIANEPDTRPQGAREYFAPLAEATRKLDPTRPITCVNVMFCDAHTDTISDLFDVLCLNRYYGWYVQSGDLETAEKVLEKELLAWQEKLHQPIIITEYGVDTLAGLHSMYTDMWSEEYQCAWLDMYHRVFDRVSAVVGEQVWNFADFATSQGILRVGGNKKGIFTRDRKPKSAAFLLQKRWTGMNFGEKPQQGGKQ
Series [5] concerns Serum. Kind of series: Stability of the compound in bovine serum assessed as drug degradation at 37 degC measured for 24 hrs. It counts as ADME, Bos taurus. The following applies: cattle.
Series [6] concerns NCI-H661. Kind of series: Ratio of HMR1826 IC50 to compound IC50 for human NCI-H661 cells in presence of beta-glucuronidase. It counts as functional.

SMILES strings stand for the structures. The source made the active and inactive calls. No cut-off for these calls is given here.

As for `COc1cccc2c1C(=O)c1c(O)c3c(c(O)c1C2=O)C[C@@](O)(C(=O)CO)C[C@@H]3O[C@H]1C[C@H](N)[C@H](O)[C@H](C)O1` [DOXORUBICIN], in series [1], the IC50 (commonly the point on the concentration scale where inhibition reaches its midpoint) was 250 nM.

Turning to `COc1cccc2c1C(=O)c1c(O)c3c(c(O)c1C2=O)C[C@@](O)(C(=O)CO)C[C@@H]3O[C@H]1C[C@H](NC(=O)OCc2ccc(O[C@@H]3O[C@H](C(=O)O)[C@@H](O)[C@H](O)[C@H]3O)c([N+](=O)[O-])c2)[C@H](O)[C@H](C)O1`, the half-inhibitory concentration (IC50) in series [1] stood at 280 nM.

With `COc1cccc2c1C(=O)c1c(O)c3c(c(O)c1C2=O)C[C@@](O)(C(=O)CO)C[C@@H]3O[C@H]1C[C@H](NC(=O)OCc2ccc(NC(=O)OCc3ccc(O[C@@H]4O[C@H](C(=O)O)[C@@H](O)[C@H](O)[C@H]4O)c([N+](=O)[O-])c3)c(COC(=O)N[C@H]3C[C@H](O[C@H]4C[C@](O)(C(=O)CO)Cc5c(O)c6c(c(O)c54)C(=O)c4c(OC)cccc4C6=O)O[C@@H](C)[C@H]3O)c2)[C@H](O)[C@H](C)O1`, the Stability result in series [2] and in series [5] was “Stable” throughout. For the same compound, the IC50 in series [1] came out at 110 nM. Besides, the inhibition result in series [3] is “inactive”. Besides, the Drug metabolism entry in series [4] is recorded as “Active”. Moreover, in series [6], the “Ratio IC50” value was determined as 2.
